From patent publication US9345793B2, “Compounds for binding to the platelet specific glycoprotein IIB/IIIA and their use for imaging of thrombi” (PIRAMAL IMAGING SA, priority 2011, dated 2016)

Tested on: human thrombi
Test: Ex vivo blood flow model: binding to human thrombi, incl. competition with cold compound
Settings: ± SEM; for in vitro clot-to-blood ratio / Accumulation Thrombus: 3 minutes post-injection of 18F-labeled compound; for Accumulation Thrombus: without cold compound; for Thrombus competition: cold compound added with hot compound, final plasma concentration 2.8 μM, 3 minutes
Text: The binding of compounds to thrombi was further investigated in an ex vivo blood flow model similar to that described in “Wakhloo, A. K. et al. Thrombus and stroke 2008, in vitro models 57-66” but modified with regard to thrombus development. Briefly, an open handmade tube-set consisting of tygon-tubes (Tygon R-1000, part N^O AAU00007: I.D. 3.2 mm, O.D. 6.4 mm, Saint Gobain Performance Plastics North America), intermediate tubes (Intrafix® Infusion set, B. Braun, Melsungen, Germany) an open reservoir (10 mL Combitip, Eppendorf) and a chamber made of a piece of polyethylene-Tube, ([…] Polyethylene Tubing, Clay Adams, PE160, length: 6.5 cm) containing a loop of a roughened thread (fishing line: Okuma UltraMax whitefish, diameter: 0.14 mm, length: 5 cm; sandpaper: CAMI Grit designation: 600, CP918a, VSM) was used for thrombus formation. The connection between the intermediate tube and the thrombus chamber was made by trimmed tips (epTIPS, 200 μL, Eppendorff, Hamburg/Germany). The Reservoir and the thrombus chamber were fixed by clamps and stands. A peristaltic-pump (Minipuls 3, Gilson, Middelton/USA) was used to pump the blood around thereby adjusting the flow in the middle of the thrombus chamber to 70-90 cm per second, which was monitored by ultrasound Doppler measurement (Vevo 770 High-Resolution In Vivo Micro-Imaging System, VisualSonics, TorontoOntario, Canada; Scanhead: RMV 704, 40 MHz). The volume of the entire tube-set was 7.5 or 15 mL.
For each experiment fresh blood was taken from a volunteer using 10 mL citrate-tubes (Sarstedt S-Monovette 02.1067.001, 10 mL, Citrate 3.13%) and immediately laid into the turning-device of an incubator at a temperature of 37° C. (Heraeus miniTherm CTT with integrated rotation- and turning device, turning speed: 19 rotations per minute, Heraeus Instruments GmbH, Hanau/Germany). As needed, two tubes were taken out of the turning-device and 15 mL were transferred to a 20 mL Syringe (Omnifix®, B. Braun, Melsungen/Germany) and gently mixed with 0.75 mL CaCl2-Solution before the peristaltic pump was started and the whole content of the syringe was transferred into the reservoir of the tube-set via a cell strainer (BD Falcon™ cell strain, 40 μm, BD, Franklin Lakes, N.J. USA). After 7 minutes 1 MBq or 0.5 MBq (15 mL or 7.5 mL) of the compound was added to the reservoir by means of a pipette, thereby mixing the content gently with the tip of the pipette. The blood was left circulating for another 3 minutes. Then, the pump was stopped, aliquots were taken from the blood and the thrombus together with the roughened thread was removed from the thrombus-chamber before both was weighted and measured in a gamma counter (Automatic Gamma Counter Wizard^2 3, Perkin Elmer). Then the thrombus together with the thread was incubated in Plasmin-solution (Plasmin from Human Plasma, Sigma Aldrich, stock-solution: 500 μg in 500 μL 150 μM Tris-buffer (pH 7.8), 20 μL stock-solution to 230 μL saline solution 0.9%) for 48 hours to separate the platelets from the thread and to determine the netto weight of the thrombus. Finally the activity of the compound in blood and thrombus as well as the ratio between both was determined (cpm/weight [mg]).
To verify the specificity of the compound, a competition experiment was conducted in which the cold compound was added to the reservoir together with the hot compound. The final plasma concentration of the cold compound was 2.8 μM.

Row | Compound | in vitro clot-to-blood ratio | Accumulation Thrombus | Thrombus competition
1 | O=C(O)C[C@H](NC(=O)[C@@H]1CCCN(C(=O)CCC2CCNCC2)C1)c1cccc(OCC[18F])c1 [Example 38, (3S)-3-[3-(2-[^18F]Fluoroethoxy)phenyl]-3-[({(3R)-1-[3-(piperidin-4-yl)propanoyl]piperidin-3-yl}carbonyl)amino]propanoic acid] | 19 ± 1 (n = 9) | 41 ± 3 (n = 5) 10^3 cpm/mg | 10 ± 1 (n = 5) 10^3 cpm/mg
2 | O=C(O)C[C@H](NC(=O)[C@@H]1CCCN(C(=O)CCC2CCNCC2)C1)c1ccc(OCC[18F])cc1 [Example 39, (3S)-3-[4-(2-[^18F]Fluoroethoxy)phenyl]-3-[({(3R)-1-[3-(piperidin-4-yl)propanoyl]piperidin-3-yl}carbonyl)amino]propanoic acid] | 34 ± 4 (n = 4) | 86 ± 9 (n = 6) 10^3 cpm/mg | 12 ± 1 (n = 6) 10^3 cpm/mg
3 | N#Cc1cc(-c2cncc([C@H](CC(=O)O)NC(=O)[C@@H]3CCCN(C(=O)CCC4CCNCC4)C3)c2)ccc1[18F] [Example 42, (3S)-3-[5-(3-Cyano-4-[^18F]fluorophenyl)pyridin-3-yl]-3-[({(3R)-1-[3-(piperidin-4-yl)propanoyl]piperidin-3-yl}carbonyl)amino]propanoic acid] | 58 ± 10 (n = 6) | 39 ± 5 (n = 6) 10^3 cpm/mg | 5 ± 1 (n = 6) 10^3 cpm/mg
4 | O=C(O)C[C@H](NC(=O)[C@@H]1CCCN(C(=O)CCC2CCNCC2)C1)c1cncc(CCc2ccc(OCC[18F])cc2)c1 [Example 46, (3S)-3-(5-{2-[4-(2-[^18F]Fluoroethoxy)phenyl]ethyl}pyridin-3-yl)-3-[({(3R)-1-[3-(piperidin-4-yl)propanoyl]piperidin-3-yl}carbonyl)amino]propanoic acid] | 191 ± 30 (n = 4) | 285 ± 76 (n = 4) 10^3 cpm/mg | 17 ± 1 (n = 4) 10^3 cpm/mg
5 | O=C(O)C[C@H](NC(=O)[C@@H]1CCCN(C(=O)CCC2CCNCC2)C1)c1cncc(CCc2cccc(OCC[18F])c2)c1 [Example 47, (3S)-3-(5-{2-[3-(2-[^18F]Fluoroethoxy)phenyl]ethyl}pyridin-3-yl)-3-[({(3R)-1-[3-(piperidin-4-yl)propanoyl]piperidin-3-yl}carbonyl)amino]propanoic acid] | 178 ± 48 (n = 4) | 258 ± 59 (n = 4) 10^3 cpm/mg | 14 ± 2 (n = 3) 10^3 cpm/mg
